# Measurements reported in patent publication US20060140994A1, “Application of an antimicrobial agent on an elastomeric article” (priority 2004, published 2006).
# Tested on: Staphylococcus aureus (ATCC #27660)
# Assay: Rapid Germicidal Time Kill, ASTM protocol 04-123409-106
# Format: cell-based
# Details: for log reduction of organisms: nitrile gloves, versus applied organisms estimated from latex control
# Method: To test the antimicrobial efficacy of a polyhexamethylene biguanide, such as available commercially under the trademark Cosmosil® CQ from Arch Chemicals, Inc., Norwalk, Conn., we treated nitrile examination gloves according to ASTM protocol 04-123409-106 “Rapid Germicidal Time Kill.” Briefly, about 50 μL of an overnight culture of Staphylococcus aureus (ATCC #27660, 5×10^8CFU/mL) was applied to the glove material. After a total contact time of about 6 minutes the glove fabric was placed into a neutralizing buffer. Surviving organisms were extracted and diluted in Letheen broth. Aliquots were spread plated on Tryptic Soy Agar plates. Plates were incubated for 48 hours at 35° C. Following incubation the surviving organisms were counted and the colony forming units (CFU) were recorded. The reduction (log10) in surviving organisms from test material versus control fabric was calculated:
# Log10 CFU/swatch Control−Log10 CFU/swatch Test Article=Log10 Reduction.
substance,measurement,setting,value
polyhexamethylene biguanide,log reduction of Staphylococcus aureus,"microtextured nitrile glove, machine applied at 0.03 g/glove",greater than four
same,log reduction of organisms,hand sprayed with no heat,greater than one
same,log reduction of organisms,machine sprayed under heated conditions,greater than 5 log
